Measured values: patent US4313956A, “Novel sypathomimetic amine prodrugs” (INTERx Research Corp., priority 1979, dated 1982)
Values joined by “and” are separate entries in the source; they are usually repeats but may differ in a detail not shown here. Equal values may be shown once.

Legend:
[1] = tested on: burn response of the right ear of female Sprague-Dawley rats; experiment: Ear Burn Test (anti-inflammatory activity, ear burn model); type: in vivo; conditions: for mean (-x) of Δ %, % increase in thickness of the treated ear: group mean; for R ear (thickness of burned, treated ear) / Δ %, % increase in thickness of the treated ear: individual rats; for % inhibition of control response / % inhibition of control response (negative = inflammatory): 50 μl/burned ear, vehicle 90% acetone, 10% IPM, 16-18 hours; for % inhibition of control response (negative = inflammatory): 3 × 10^-2 M
Method: The anti-inflammatory activity of dipivalyloxymethylepinephrine (DDME), a novel prodrug according to this invention, was determined in an ear burn model vis-a-vis the known epinephrine prodrug, dipivalylepinephrine (DPE). Three different ear burn experiments were carried out, each experiment developing a comparison at two different drug dosages.
A controlled thermal challenge was administered to the right ear of female Sprague-Dawley rats, 40-60 g. […] Pressure applied during the 21 second burn administration was ca. 640 g/cm^2. Two groups, with and without application of vehicle (90% acetone, 10% isopropyl-myristate) served as controls. Vehicle with or without drug was applied to the right ear immediately after burning in the amount of […]. Rats were killed by cervical disclocation 16-18 hours after treatment and the thickness of each ear was determined with a micrometer (in inches ×10^3). Burn response values were normalized by expression of the % increase in thickness of the treated ear, i.e., [formula] The vehicle-treated control group was considered to be the maximum burn response within any given experiment. Inhibition or reversal of the burn response due to drug treatment is expressed as a percentage of the control response.

psoriatic response = conditions: concentrations comparable to 3×10^-2 M; cited from earlier work
[2] = 0.00001 M, n = 8, control/vehicle 44.6%
[3] = 0.0001 M, n = 8, control/vehicle 44.6%
[4] = .00003 M, control/vehicle 40.2 ± 12.6
[5] = .0003 M, control/vehicle 40.2 ± 12.6
[6] = .003 M, control/vehicle 32.5 ± 8.9
[7] = .03 M, control/vehicle 32.5 ± 8.9

| Structure (SMILES) | mean (-x) of Δ %, % increase in thickness of the treated ear [1, 2] [%] | R ear (thickness of burned, treated ear) ([1]; 0.00001 M) | Δ %, % increase in thickness of the treated ear ([1]; 0.00001 M) | mean (-x) of Δ %, % increase in thickness of the treated ear [1, 3] [%] | R ear (thickness of burned, treated ear) ([1]; 0.0001 M) | Δ %, % increase in thickness of the treated ear ([1]; 0.0001 M) | % inhibition of control response ([1]; 1 × 10^-4 M) [%] | % inhibition of control response ([1]; 1 × 10^-5 M) [%] | % inhibition of control response (negative = inflammatory) [1] [%] | % inhibition of control response ([1]; 3 × 10^-3 M) [%] | % inhibition of control response ([1]; 3 × 10^-4 M) [%] | % inhibition of control response ([1]; 3 × 10^-5 M) [%] | mean (-x) of Δ %, % increase in thickness of the treated ear [1, 4] [%] | R ear (thickness of burned, treated ear) ([1]; .00003 M) | Δ %, % increase in thickness of the treated ear ([1]; .00003 M) | mean (-x) of Δ %, % increase in thickness of the treated ear [1, 5] [%] | R ear (thickness of burned, treated ear) ([1]; .0003 M) | Δ %, % increase in thickness of the treated ear ([1]; .0003 M) | mean (-x) of Δ %, % increase in thickness of the treated ear [1, 6] [%] | R ear (thickness of burned, treated ear) ([1]; .003 M) | other results |
| --- | --- | --- | --- | --- | --- | --- | --- | --- | --- | --- | --- | --- | --- | --- | --- | --- | --- | --- | --- | --- | --- |
| CNCC(O)c1ccc(OC(=O)C(C)(C)C)c(OC(=O)C(C)(C)C)c1 (stereo not drawn) [DPE, dipivalylepinephrine] | 33.3 | 17.8 inches ×10^3 and 15.7 inches ×10^3 and 16.2 inches ×10^3 and 18.1 inches ×10^3 and 16.1 inches ×10^3 and 14.5 inches ×10^3 and 18.3 inches ×10^3 | 41.3% and 26.6% and 24.6% and 29.8% and 46.0% and 26.8% and 25.0% and 46.4% | 34.4 | 15.9 inches ×10^3 and 17.3 inches ×10^3 and 17.4 inches ×10^3 and 18.3 inches ×10^3 and 16.6 inches ×10^3 and 15.8 inches ×10^3 and 16.4 inches ×10^3 and 17.2 inches ×10^3 | 31.4% and 35.2% and 35.9% and 48.8% and 32.8% and 26.4% and 27.1% and 37.6% | 22.9 | 25.3 | -21.5 | 8 | 31.3 | 19.7 | 32.3 ± 5.2 | 16.4 inches ×10^3 and 18.2 inches ×10^3 and 17.5 inches ×10^3 and 18.1 inches ×10^3 and 16.8 inches ×10^3 and 18.5 inches ×10^3 and 14.5 inches ×10^3 and 16.0 inches ×10^3 | 29.1% and 32.8% and 31.6% and 40.3% and 36.6% and 37.0% and 22.9% and 30.1% | 27.6 ± 6.9 | 15.8 inches ×10^3 and 16.4 inches ×10^3 and 18.0 inches ×10^3 and 18.3 inches ×10^3 and 17.7 inches ×10^3 and 16.6 inches ×10^3 and 15.2 inches ×10^3 and 16.2 inches ×10^3 | 27.4% and 26.2% and 27.7% and 35.6% and 34.1% and 12.6% and 29.6% | 29.9 ± 10.8 | 18.6 inches ×10^3 and 19.6 inches ×10^3 and 19.8 inches ×10^3 and 16.7 inches ×10^3 and 16.5 inches ×10^3 and 17.1 inches ×10^3 and 13.4 inches ×10^3 and 17.2 inches ×10^3 | Δ %, % increase in thickness of the treated ear ([1]; .003 M): 39.8% and 41.0% and 43.5% and 21.9% and 23.1% and 29.5% and 12.6% and 27.4%; mean (-x) of Δ %, % increase in thickness of the treated ear [1, 7]: 39.5 ± 11.4%; R ear (thickness of burned, treated ear) ([1]; .03 M): 17.5 inches ×10^3 and 21.3 inches ×10^3 and 18.1 inches ×10^3 and 18.5 inches ×10^3 and 20.0 inches ×10^3 and 17.4 inches ×10^3 and 15.7 inches ×10^3 and 18.3 inches ×10^3; Δ %, % increase in thickness of the treated ear ([1]; .03 M): 32.6% and 56.6% and 43.7% and 37.0% and 52.7% and 28.9% and 23.6% and 40.8%; psoriatic response in clinical observations (psoriatic response): a psoriatic response was often observed |
| CNCC(O)c1ccc(OCOC(=O)C(C)(C)C)c(OCOC(=O)C(C)(C)C)c1 (stereo not drawn) [DPME, dipivalyloxymethylepinephrine] | 30.5 | 16.3 inches ×10^3 and 16.5 inches ×10^3 and 13.8 inches ×10^3 and 14.1 inches ×10^3 and 17.0 inches ×10^3 and 14.7 inches ×10^3 and 17.8 inches ×10^3 and 16.8 inches ×10^3 | 30.4% and 35.2% and 16.9% and 22.6% and 41.7% and 20.5% and 40.2% and 36.6% | 23.0 | 14.0 inches ×10^3 and 14.7 inches ×10^3 and 13.6 inches ×10^3 and 14.5 inches ×10^3 and 15.4 inches ×10^3 and 14.9 inches ×10^3 and 15.3 inches ×10^3 | 18.6% and 23.5% and 12.4% and 21.8% and 31.6% and 22.5% and 26.3% and 27.5% | 48.4 | 31.6 | -32.6 | 8 | 41.3 | 30.6 | 27.9 ± 6.2 | 15.3 inches ×10^3 and 17.8 inches ×10^3 and 16.6 inches ×10^3 and 16.3 inches ×10^3 and 15.5 inches ×10^3 and 15.4 inches ×10^3 and 16.9 inches ×10^3 | 17.7% and 38.0% and 31.7% and 25.4% and 26.0% and 24.2% and 32.8% and 27.0% | 23.6 ± 7.9 | 17.7 inches ×10^3 and 16.4 inches ×10^3 and 18.0 inches ×10^3 and 17.5 inches ×10^3 and 15.2 inches ×10^3 and 15.5 inches ×10^3 and 15.0 inches ×10^3 and 14.8 inches ×10^3 | 22.1% and 17.1% and 38.5% and 31.6% and 22.6% and 24.0% and 17.2% and 15.6% | 29.9 ± 12.2 | 19.9 inches ×10^3 and 15.1 inches ×10^3 and 18.1 inches ×10^3 and 17.0 inches ×10^3 and 17.1 inches ×10^3 and 15.2 inches ×10^3 and 14.0 inches ×10^3 and 16.9 inches ×10^3 | Δ %, % increase in thickness of the treated ear ([1]; .003 M): 45.3% and 21.8% and 42.5% and 26.9% and 41.3% and 17.8% and 12.9% and 31.0%; mean (-x) of Δ %, % increase in thickness of the treated ear [1, 7]: 43.1 ± 12.4%; R ear (thickness of burned, treated ear) ([1]; .03 M): 18.4 inches ×10^3 and 16.9 inches ×10^3 and 20.7 inches ×10^3 and 18.2 inches ×10^3 and 19.3 inches ×10^3 and 20.9 inches ×10^3 and 19.0 inches ×10^3; Δ %, % increase in thickness of the treated ear ([1]; .03 M): 36.3% and 30.0% and 47.9% and 43.0% and 64.6% and 49.6%; anti-inflammatory effect compared with DPE ([1]; low concentration levels): consistently elicits a greater anti-inflammatory effect than DPE; more effective as an anti-inflammatory agent from a dosage standpoint ([1]; versus DPE, dose response profiles at low concentrations): 10-30 fold |
